We go through four compounds from US6344214B1, “Method for retarding and ameliorating fever blisters and canker sores” (priority 1999, dated 2002).

Data set [1] relates to herpes Simplex virus. The following applies: cited from earlier work.
The test system of data set [2] is neoplasms in the oral cavity. Particulars: cited from earlier work.
In data set [3] the test system is photoreceptor cells of the retina. The following applies: 37.5 mg/kg intraperitoneal at 12 hour intervals; uninjured control 45, injured without astaxanthin 32; cited from earlier work.
Data set [4] deals with rat kidney fibroblasts. Particulars: UVA light for four hours; cited from earlier work.
Data set [5] concerns rhodopsin. The following applies: oral dosing, cited from earlier work.
For data set [6] the following is noted: in vivo; cited from earlier work.
Data set [7] concerns CYP1A1. The following applies: dietary level 300 ppm; cited from earlier work.
In data set [8] the test system is neoplastic liver lesions. Particulars: dietary astaxanthin; cited from earlier work.
Data set [9] concerns rats. Particulars: 400 ppm for 41 days; cited from earlier work.
The test system of data set [10] is preneoplastic lesions and neoplasms in the bladder. The following applies: 50-ppm astaxanthin in drinking water; cited from earlier work.
In data set [11] the test system is shrimp. The following applies: 50 mg/kg diet, 3 months; cited from earlier work.
In data set [12] the test system is Atlantic salmon fry. Particulars: cited from earlier work.
For data set [13] the following is noted: 2 mg astaxanthin capsule, six months; placebo 21.78; P=0.047; cited from earlier work.
Data set [14] deals with neoplasms in the large intestines. The following applies: rats fed astaxanthin, azoxymethane induction; cited from earlier work.
The conditions of data set [15]: 0.1% dietary astaxanthin for 30 days, cited from earlier work.
Data set [16] deals with free putrescine in the epidermis. Particulars: 10 ppm astaxanthin diet, 4 months; control increased 4.1-fold; cited from earlier work.
In data set [17] the test system is cold sores. Briefly: Example 1: oral astaxanthin soft gel capsules, cold sore outbreaks in one individual. Format: in vivo, human. The method, then: (§1) Haematococcus algae meal containing 1.5% astaxanthin was thoroughly mixed with safflower oil such that the resulting suspension contained 2.0 mg of pure astaxanthin per gram of safflower oil suspension. 500 mg soft gel capsules were produced from the safflower oil suspension such that each soft gel capsule contained 1.0 mg of pure astaxanthin.
One individual was a person who has suffered from cold sore outbreaks every 4-6 weeks on average which lasted 10-14 days . This individual consumed 3.0 mg of astaxanthin (three soft gel capsules) per day for two weeks prior to an outbreak, and the symptoms lasted only 2 days instead of 2 weeks.

The subject of data set [18] is chicken embryo fibroblasts (CEF). The following applies: SOD, catalase, glutathione peroxidase as indices; cited from earlier work.
The subject of data set [19] is canker sores. Put plainly: Example 2: oral astaxanthin soft gel capsules, canker sores in one individual. Format: in vivo, human. The protocol: as §1
A second individual was a person who had often suffered canker sores on the inside of their mouth. They had difficulty and pain eating sour and tart foods due to the condition. This individual consumed 2.0 mg of astaxanthin (two soft gel capsules) per day for three weeks and the cankers sores were alleviated. They were then able to eat sour and tart foods without suffering pain from the canker sores. When the individual stopped taking the supplement the canker sores returned within 10 days.

Where two headings read alike, the source gives them in different places. Where only a bound is given, the exact number is not on record here.

Take `Nc1nc2c(ncn2COCCO)c(=O)[nH]1` [acyclovir, Acyclovir]: the “patients with no fever blister outbreaks” value in data set [1] (four acyclovir pills daily for 4 months) is 50%. Besides, in data set [1] (pills taken at onset of symptoms, or cream applied to blisters or tingling lip areas, separate studies), the “effectiveness against fever blisters” value is on record as “only minimally effective”.

`CC1=C(/C=C/C(C)=C/C=C/C(C)=C/C=C/C=C(C)/C=C/C=C(C)/C=C/C2=C(C)C(=O)[C@@H](O)CC2(C)C)C(C)(C)C[C@H](O)C1=O` [astaxanthin]: the “incidences of preneoplastic and neoplasms in the oral cavity” value in data set [2] (100-ppm dietary astaxanthin after the carcinogenic chemical induction) is “significantly smaller”. In data set [2] (astaxanthin and the chemical inducer fed at the same time), the oral neoplasms result is “no oral neoplasms developed”. Besides, the “outer nuclear layer (ONL) thickness after photic injury” value in data set [3] is listed as 42 microns. In data set [4], the “level required to restore superoxide dismutase activity” value (shortened to “level required”) is 5 nM, the “level that prevented the UVA-induced increase in TBARS” value is given as 1 nM and the “level that returned catalase activity to control levels” value (from here on “level that returned catalase activity”) is 5 nM. Further, the retinal rhodopsin level in data set [5] (6-hour post injury, control 0.75) was 1.15 to 1.2 nmol. In addition, the retinal rhodopsin level result in data set [5] (6 days after injury, constant through day 13, control 0.5) is listed as “about 1.25 nmol”. Besides, the “crossing of the blood-brain barrier” value in data set [6] was “able to readily cross the blood-brain barrier”. For the same compound, in [7], the “induction of CYP1A1” value is given as “strong inducer”. In data set [8], the “number and size of neoplastic liver lesions” value was “significant influence on the reduction in number and size”. Besides, the “effects on body/organ weight, enzyme activities, pregnancy, litter size” value in data set [9] is “no harmful effects”. In data set [10], the “incidence of preneoplastic lesions and neoplasms in the bladder” value is “significantly reduced incidence”. The average survival rate in [11] is 87%. The survival rate result in data set [12] (astaxanthin concentrations below 1 ppm in diet) is reported as “less than 50%”. Also, in data set [12] (groups receiving higher concentrations), the survival rate result is listed as “greater than 90%”. In addition, in data set [13], the “strength/endurance average score (knee bends with a barbell weight)” value is on record as 61.74. Further, the “incidence and multiplicity of neoplasms in the large intestines” value in data set [14] is recorded as “significantly smaller”. In addition, in data set [15] (control diet 12.5), the LDL cholesterol was 9.6 mg/dL. Moreover, in data set [15] (control diet 42.4), the HDL cholesterol is given as 57 mg/dL. For the same compound, the “increase of putrescine after UV irradiation” value in data set [16] is 1.5 fold. Further, the “duration of cold sore symptoms” value in [17] (3.0 mg astaxanthin per day (three soft gel capsules) for two weeks before the outbreak, earlier 10-14 days) is on record as 2 days. Besides, the “recurrence of cold sores” value in data set [17] (3.0 mg per day, earlier outbreaks every 4-6 weeks) is reported as “has not had a another recurrence of cold sores in three months”. For the same compound, in data set [18], the “protection against paraquat-induced oxidative stress” value is listed as “observed at all levels of astaxanthin tested”. Further, the “effect on canker sores” value in [19] (2.0 mg astaxanthin per day (two soft gel capsules) for three weeks) is recorded as “alleviated”. Further, in data set [19] (after stopping 2.0 mg per day), the “time to return of canker sores after stopping the supplement” value is recorded as ≤ 10 days. The “effect on symptoms on taking the supplement again” value in data set [19] (same dosage, 2.0 mg per day) is on record as “ameliorated after approximately three weeks”.

For `CC1=C(/C=C/C(C)=C/C=C/C(C)=C/C=C/C=C(C)/C=C/C=C(C)/C=C/C2=C(C)CCCC2(C)C)C(C)(C)CCC1` [beta-carotene], in [4], the “level required” value is listed as 500 nM, the “level that prevented the UVA-induced increase in TBARS” value is given as 100 nM and the “level that returned catalase activity” value is 1000 nM. In addition, in [11], the average survival rate is 50%.

As to `CC1=C[C@H](O)CC(C)(C)[C@H]1/C=C/C(C)=C/C=C/C(C)=C/C=C/C=C(C)/C=C/C=C(C)/C=C/C1=C(C)C[C@@H](O)CC1(C)C` [lutein], in data set [4], the “level required” value was 1000 nM, the “level that prevented the UVA-induced increase in TBARS” value was 1000 nM and the “level that returned catalase activity” value is on record as 100 nM.
